This note sets out measurements from patent US20070213291A1, “Therapeutically useful synthetic oligonucleotides” (priority 1999, published 2007).

Values joined by “and” are separate entries in the source; they are usually repeats but may differ in a detail not shown here. Identical values can stand only once.

Data set [1] relates to LNCaP human prostate cancer cells. The data set is described as follows: LNCaP human prostate cancer xenografts in male nude nu/nu mice. The format is in vivo. The note with it: after 4 weeks of treatment, compared with other groups (group 1 saline, group 5 BCG A-3). The protocol: LNCaP human prostate cancer cells are implanted subcutaneously, as xenografts, in male nude nu/nu mice. The mice are divided into 5 groups of 10 mice. On day 0, group 1 mice receive saline, group 2 mice receive 3 base SEQ ID NO:8, group 3 mice receive 6 base GT SEQ ID NO:25, group 4 mice receive 6 base AG SEQ ID NO:45 and group 5 mice receive 45 base BCG A-3 SEQ ID NO:69. After 4 weeks of treatment, the mice are sacrificed and timor mass is determined.

For data set [2], the system named is OVCAR-3 human ovarian cancer cells. As to the kind of experiment: Inhibition of OVCAR-3 cell proliferation (MTT). It is filed as cell-based. The note with it: 100 μg/ml, 48 h, 5×10^5 cells/ml. The protocol:
Cells were seeded in 6 (1 ml/well), 24 (0.5 ml/well) or 96 (0.1 ml/well) well flat-bottom microplates and were maintained at 37° C. in a 5% CO2 atmosphere. Unless stated otherwise, 2.5×10^5 cells/ml were incubated with 0 μg/ml (control) and 100 μg/ml (treated) of 2 to 45 base sequences containing A, C, G and T for 48 h.
Cell proliferation was measured using dimethylthiazol-diphenyl-tetrazolium (MTT) reduction (Mosman et al. J. Immunol. Methods 65:55, 1983). MTT was measured at a wavelength of 570 nm using a multiplate spectrophotometer reader (ELX800, Bio-TEK Instruments Inc., Winooski, Vt.).
OVCAR-3 ovarian cancer cells are a p53 mutated, p21/waf-1/Cip deleted, metastatic human solid tumor model. OVCAR-3 cells (5×10^5 cells/ml) were incubated with 2, 6 and 18 base GT sequences and with a 6 base AGT sequence (Table 11).

Data set [3] has as its system Jurkat human leukemia T cells. The data set is described as follows: Intracellular calcium (Fluo-3-AM fluorescence). It is filed as cell-based. As to conditions: 24 h, 100 μg/ml. The protocol:
Increases in intracellular calcium (Ca^2+)i are reported to be associated with apoptosis induction (Lam et al. Mol. Endocrinol. 7:686, 1993). (Ca^2+)i was followed using the fluorescent probe Fluo-3-AM (Cell Permaant, Molecular Probes, Inc., Eugene, Oreg.). An increase in Fluo-3-AM fluorescence is indicative of an increase in (Ca^2+)i.
Jurkat human leukemia T cells were incubated for 24 h with 6 base GT SEQ. NO:25. Cells were collected by centrifugation, suspended in PBS containing 1% FBS and loaded with 10 μM Fluo-3-AM for 1 h at 37° C. Cell fluorescence was measured at 488 nm excitation and 530 nm emission (FL1 detector). Data were analyzed on a FACSCALIBUR using the program CellQUEST (Becton Dickinson).

As to GGGTGG [SEQ ID NO:25], the tumor mass entry in data set [1] is “less tumor mass than groups 1 and 5 mice”. Besides, in data set [2], the “% INHIBITION of OVCAR-3 human ovarian cancer cell proliferation” value is 15% and 14%. In data set [3], the “increase in cell fluorescence (Fluo-3-AM), indicative of (Ca2+)i” value is 88%.
